Results taken from US10787452B2 (Vertex Pharmaceuticals Incorporated, priority 2012, dated 2020).

System: HCT116 colorectal cancer cells
Assay: Cisplatin sensitization assay (96 h cell viability MTS);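 note: compound concentration needed to lower the Cisplatin-alone IC50 by a set fold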
Format: cell-based
Settings: 96 h MTS, compound plus Cisplatin
Method in brief: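 Simultaneous addition of compound and cisplatin (2-fold series, top 10 μM final, full matrix), followed by 96 h culture at 37° C/5% CO2 and a 1 h MTS viability read.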

| SMILES | Cisplatin Sensitization Assay |
| --- | --- |
| CN(C)C(=O)C1CCN(c2ccncc2NC(=O)c2c(N)nn3cc(F)cnc23)CC1 [I-G-2, 2-amino-N-(4-(4-(dimethylcarbamoyl)piperidin-1-yl)pyridin-3-yl)-6-fluoropyrazolo[1,5-a]pyrimidine-3-carboxamide] | +++ (Compounds with a Cisplatin sensitization value of <0.02 μM are marked with “+++.”) |
| CN1CCN(C(=O)C2CCN(c3c(Cl)cncc3NC(=O)c3c(N)nn4cc(F)cnc34)CC2)CC1 [I-G-3, 2-amino-N-(5-chloro-4-(4-(4-methylpiperazine-1-carbonyl)piperidin-1-yl)pyridin-3-yl)-6-fluoropyrazolo[1,5-a]pyrimidine-3-carboxamide] | +++ (Compounds with a Cisplatin sensitization value of <0.02 μM are marked with “+++.”) |
| CN1CCN(C(=O)C2CCN(c3c(F)cncc3NC(=O)c3c(N)nn4cc(F)cnc34)CC2)CC1 [I-G-4, 2-amino-6-fluoro-N-(5-fluoro-4-(4-(4-methylpiperazine-1-carbonyl)piperidin-1-yl)pyridin-3-yl)pyrazolo[1,5-a]pyrimidine-3-carboxamide] | +++ (Compounds with a Cisplatin sensitization value of <0.02 μM are marked with “+++.”) |
| CN1CCN(C(=O)C2CCN(c3c(F)cncc3NC(=O)c3c(N)nn4cc(Cl)cnc34)CC2)CC1 [I-G-5, 2-amino-6-chloro-N-(5-fluoro-4-(4-(4-methylpiperazine-1-carbonyl)piperidin-1-yl)pyridin-3-yl)pyrazolo[1,5-a]pyrimidine-3-carboxamide] | +++ (Compounds with a Cisplatin sensitization value of <0.02 μM are marked with “+++.”) |
| CN1CCCN(C(=O)C2CCN(c3c(F)cncc3NC(=O)c3c(N)nn4cc(F)cnc34)CC2)CC1 [I-G-6, 2-amino-6-fluoro-N-(5-fluoro-4-(4-(4-methyl-1,4-diazepane-1-carbonyl)piperidin-1-yl)pyridin-3-yl)pyrazolo[1,5-a]pyrimidine-3-carboxamide] | +++ (Compounds with a Cisplatin sensitization value of <0.02 μM are marked with “+++.”) |
| Nc1nn2cc(F)cnc2c1C(=O)Nc1cncc(F)c1N1CCC(C(=O)N2CCN3CCC2CC3)CC1 [I-G-7, N-(4-(4-(1,4-diazabicyclo[3.2.2]nonane-4-carbonyl)piperidin-1-yl)-5-fluoropyridin-3-yl)-2-amino-6-fluoropyrazolo[1,5-a]pyrimidine-3-carboxamide] | +++ (Compounds with a Cisplatin sensitization value of <0.02 μM are marked with “+++.”) |
| Nc1nn2cc(F)cnc2c1C(=O)Nc1cncc(F)c1N1CCC(C(=O)N2CCC2)CC1 [I-G-8, 2-amino-N-(4-(4-(azetidine-1-carbonyl)piperidin-1-yl)-5-fluoropyridin-3-yl)-6-fluoropyrazolo[1,5-a]pyrimidine-3-carboxamide] | +++ (Compounds with a Cisplatin sensitization value of <0.02 μM are marked with “+++.”) |
| CCN1CCN(C(=O)C2CCN(c3c(F)cncc3NC(=O)c3c(N)nn4cc(F)cnc34)CC2)CC1 [I-G-9, 2-amino-N-(4-(4-(4-ethylpiperazine-1-carbonyl)piperidin-1-yl)-5-fluoropyridin-3-yl)-6-fluoropyrazolo[1,5-a]pyrimidine-3-carboxamide] | +++ (Compounds with a Cisplatin sensitization value of <0.02 μM are marked with “+++.”) |
| Nc1nn2cc(F)cnc2c1C(=O)Nc1cncc(F)c1N1CCC(C(=O)N2CCN3CCCC3C2)CC1 (centres unmarked) [I-G-10, 2-amino-6-fluoro-N-(5-fluoro-4-(4-(octahydropyrrolo[1,2-a]pyrazine-2-carbonyl)piperidin-1-yl)pyridin-3-yl)pyrazolo[1,5-a]pyrimidine-3-carboxamide] | +++ (Compounds with a Cisplatin sensitization value of <0.02 μM are marked with “+++.”) |
| CN(C)[C@@H]1CCN(C(=O)C2CCN(c3c(F)cncc3NC(=O)c3c(N)nn4cc(F)cnc34)CC2)C1 [I-G-11, (R)-2-amino-N-(4-(4-(3-(dimethylamino)pyrrolidine-1-carbonyl)piperidin-1-yl)-5-fluoropyridin-3-yl)-6-fluoropyrazolo[1,5-a]pyrimidine-3-carboxamide] | +++ (Compounds with a Cisplatin sensitization value of <0.02 μM are marked with “+++.”) |
| Nc1nn2cc(F)cnc2c1C(=O)Nc1cncc(F)c1N1CCC(C(=O)N2CCNCC2)CC1 [I-G-12, 2-amino-6-fluoro-N-(5-fluoro-4-(4-(piperazine-1-carbonyl)piperidin-1-yl)pyridin-3-yl)pyrazolo[1,5-a]pyrimidine-3-carboxamide] | +++ (Compounds with a Cisplatin sensitization value of <0.02 μM are marked with “+++.”) |
| Nc1nn2cc(F)cnc2c1C(=O)Nc1cncc(F)c1N1CCC(C(=O)N2CCN(C3CC3)CC2)CC1 [I-G-13, 2-amino-N-(4-(4-(4-cyclopropylpiperazine-1-carbonyl)piperidin-1-yl)-5-fluoropyridin-3-yl)-6-fluoropyrazolo[1,5-a]pyrimidine-3-carboxamide] | +++ (Compounds with a Cisplatin sensitization value of <0.02 μM are marked with “+++.”) |
| Nc1nn2cc(F)cnc2c1C(=O)Nc1cncc(F)c1N1CCC(C(=O)N2CC3(COC3)C2)CC1 [I-G-14, N-(4-(4-(2-oxa-6-azaspiro[3.3]heptane-6-carbonyl)piperidin-1-yl)-5-fluoropyridin-3-yl)-2-amino-6-fluoropyrazolo[1,5-a]pyrimidine-3-carboxamide] | +++ (Compounds with a Cisplatin sensitization value of <0.02 μM are marked with “+++.”) |
| CN1CCN(C(=O)C2CCN(c3c(F)cncc3NC(=O)c3c(N)nn4cc(F)cnc34)CC2)CC1(C)C [I-G-15, 2-amino-6-fluoro-N-(5-fluoro-4-(4-(3,3,4-trimethylpiperazine-1-carbonyl)piperidin-1-yl)pyridin-3-yl)pyrazolo[1,5-a]pyrimidine-3-carboxamide] | +++ (Compounds with a Cisplatin sensitization value of <0.02 μM are marked with “+++.”) |
| CN(C)CCCN(C)C(=O)C1CCN(c2c(F)cncc2NC(=O)c2c(N)nn3cc(F)cnc23)CC1 [I-G-16, 2-amino-N-(4-(4-((3-(dimethylamino)propyl)(methyl)carbamoyl)piperidin-1-yl)-5-fluoropyridin-3-yl)-6-fluoropyrazolo[1,5-a]pyrimidine-3-carboxamide] | +++ (Compounds with a Cisplatin sensitization value of <0.02 μM are marked with “+++.”) |
| CNCCCN(C)C(=O)C1CCN(c2c(F)cncc2NC(=O)c2c(N)nn3cc(F)cnc23)CC1 [I-G-17] | + (Compounds with a Cisplatin sensitization value >0.2 μM but <5 μM are marked with “+.”) |
| CN1CC2CN(C(=O)C3CCN(c4c(F)cncc4NC(=O)c4c(N)nn5cc(F)cnc45)CC3)CC2C1 (centres unmarked) [I-G-18, 2-amino-6-fluoro-N-(5-fluoro-4-(4-(5-methyloctahydropyrrolo[3,4-c]pyrrole-2-carbonyl)piperidin-1-yl)pyridin-3-yl)pyrazolo[1,5-a]pyrimidine-3-carboxamide] | +++ (Compounds with a Cisplatin sensitization value of <0.02 μM are marked with “+++.”) |
| CC(C)(C)NC(=O)C1CCN(c2c(F)cncc2NC(=O)c2c(N)nn3cc(F)cnc23)CC1 [I-G-19, 2-amino-N-(4-(4-(tert-butylcarbamoyl)piperidin-1-yl)-5-fluoropyridin-3-yl)-6-fluoropyrazolo[1,5-a]pyrimidine-3-carboxamide] | ++ (Compounds with a Cisplatin sensitization value >0.02 μM but <0.2 μM are marked with “++.”) |
| CN1CCC(NC(=O)C2CCN(c3c(F)cncc3NC(=O)c3c(N)nn4cc(F)cnc34)CC2)CC1 [I-G-20, 2-amino-6-fluoro-N-(5-fluoro-4-(4-((1-methylpiperidin-4-yl)carbamoyl)piperidin-1-yl)pyridin-3-yl)pyrazolo[1,5-a]pyrimidine-3-carboxamide] | + (Compounds with a Cisplatin sensitization value >0.2 μM but <5 μM are marked with “+.”) |
| COC1CN(C(=O)C2CCN(c3c(F)cncc3NC(=O)c3c(N)nn4cc(F)cnc34)CC2)C1 [I-G-21, 2-amino-6-fluoro-N-(5-fluoro-4-(4-(3-methoxyazetidine-1-carbonyl)piperidin-1-yl)pyridin-3-yl)pyrazolo[1,5-a]pyrimidine-3-carboxamide] | +++ (Compounds with a Cisplatin sensitization value of <0.02 μM are marked with “+++.”) |
| CN(C)C1CN(C(=O)C2CCN(c3c(F)cncc3NC(=O)c3c(N)nn4cc(F)cnc34)CC2)C1 [I-G-22, 2-amino-N-(4-(4-(3-(dimethylamino)azetidine-1-carbonyl)piperidin-1-yl)-5-fluoropyridin-3-yl)-6-fluoropyrazolo[1,5-a]pyrimidine-3-carboxamide] | +++ (Compounds with a Cisplatin sensitization value of <0.02 μM are marked with “+++.”) |
| CN1CC(NC(=O)C2CCN(c3c(F)cncc3NC(=O)c3c(N)nn4cc(F)cnc34)CC2)C1 [I-G-23, 2-amino-6-fluoro-N-(5-fluoro-4-(4-((1-methylazetidin-3-yl)carbamoyl)piperidin-1-yl)pyridin-3-yl)pyrazolo[1,5-a]pyrimidine-3-carboxamide] | +++ (Compounds with a Cisplatin sensitization value of <0.02 μM are marked with “+++.”) |
| CN1CCC(NC(=O)C2CCN(c3c(F)cncc3NC(=O)c3c(N)nn4cc(F)cnc34)CC2)C1 (centres unmarked) [I-G-24, 2-amino-6-fluoro-N-(5-fluoro-4-(4-((1-methylpyrrolidin-3-yl)carbamoyl)piperidin-1-yl)pyridin-3-yl)pyrazolo[1,5-a]pyrimidine-3-carboxamide] | +++ (Compounds with a Cisplatin sensitization value of <0.02 μM are marked with “+++.”) |
